Our source for the Km values is paper PMC9129912, “Characterization of a New Multifunctional GH20 β-N-Acetylglucosaminidase From Chitinibacter sp. GC72 and Its Application in Converting Chitin Into N-Acetyl Glucosamine” (Frontiers in Microbiology, 2022).

The test system of the assay is T1, NAGaseA.
T1 construct: whole ORF, 844 residues (2535 bp), pET-28a(+) NdeI/XhoI, His6-tag kept, E. coli BL21(DE3), Ni-NTA purified, ~92 kDa (92,379 Da with His6-tag); cloning primers encode N-terminal MNKPAG and C-terminal SRVVAV
Nature of the assay: pNP release at […] nm, Lineweaver-Burk. The format is biochemical, Chitinibacter sp. GC72. Particulars: 50 mM PBS pH 6.5, 40°C, 10 min, 50-2,500 μM substrate.

By Km is commonly meant the concentration of substrate that gives half-maximal velocity. Take `CC(=O)N[C@H]1[C@H](Oc2ccc([N+](=O)[O-])cc2)O[C@H](CO)[C@@H](O)[C@@H]1O` [pNP-GlcNAc]: the Km was determined as 40 µM.
